Source: US20100056615A1, “USE OF TRICYCLIC DITERPENES AND THEIR DERIVATIVES FOR THE TREATMENT, CO-TREATMENT OR PREVENTION OF INFLAMMATORY DISORDERS AND/OR JOINT DISORDERS” (priority 2006, published 2010)

Assays:
Assay in all cases: Gene expression in human chondrocyte cells (SW1353), quantitative real-time PCR
Assay type in all cases: cell-based
Details in all cases: 12.5 μM compound, SW1353 chondrocytes, IL-1β treated
[1] = test system: Human MMP-1
Experimental: (§1) The cells were treated with IL-1β, which is one of the natural mediators that induce cartilage breakdown and is detected in substantial amounts in osteoarthritic cartilage tissues and cells derived thereof. Treatment of cells with IL-1β triggers the expression of genes that are involved in catabolic events, such as MMPs.
(§2) Chondrocytes (SW1353; purchased from the […] [ATCC]) were grown in cell culture medium according to the instructions from ATCC. For experimental treatments, cells were seeded into 6-well plates and cultured for two days until they reached confluence. Total cellular RNA was extracted from cultured cells and reverse-transcribed as described by Richard et al. Mol. Nutr. […] Expression levels of distinct genes were determined by quantitative real-time PCR as described in Richard et al. Mol. Nutr.

[2] = test system: Human collagen I
Experimental: as §1, §2

[3] = test system: Aggrecan
Experimental: as §1, §2

[4] = test system: Human MMP-13
Experimental: as §1, §2

[5] = test system: Human MMP-3
Experimental: as §1, with “MMPs. Also, treatment of the cells with IL-1β reduces the collagen expression levels (compared to untreated cells)” for “MMPs.”
Chondrocytes (SW1353; purchased from the […] [ATCC]) were grown in cell culture medium according to the instructions from ATCC. For experimental treatments, cells were seeded into 6-well plates and cultured for two days until they reached confluence. Total cellular RNA was extracted from cultured cells and reverse-transcribed as described by Richard et al. Mol. Nutr. Food Res. 49, 431-442, 2005. Expression levels of distinct genes were determined by quantitative real-time PCR as described in Richard et al. Mol. Nutr. Food Res. 49, 431-442, 2005.

[6] = test system: Human collagen II
Experimental: as §1, §2

## CC(C)c1cc2c(c(O)c1O)C1=C(CC2)C(C)(C)CCC1=O [Sageone (VII), Sageone]
[1]
  Human MMP-1 gene expression level relative to cells treated without the compound: 3%
[2]
  Human collagen I gene expression level relative to cells treated without the compound: 120%
[3]
  Aggrecan gene expression level relative to cells treated without the compound: 152%
[4]
  Human MMP-13 gene expression level relative to cells treated without the compound: 36%
[5]
  Human MMP-3 gene expression level relative to cells treated without the compound: 112%

## COc1c(C(C)C)cc2c(c1O)[C@@]1(C(=O)O)CCCC(C)(C)[C@@H]1CC2 [Carnosic acid-12-methyl ether (XII), Carnosic acid 12-methylether]
[1]
  Human MMP-1 gene expression level relative to cells treated without the compound: 94%
[3]
  Aggrecan gene expression level relative to cells treated without the compound: 123%
[6]
  Human collagen II gene expression level relative to cells treated without the compound: 139%
[4]
  Human MMP-13 gene expression level relative to cells treated without the compound: 60%
[5]
  Human MMP-3 gene expression level relative to cells treated without the compound: 69%
